Experiments:
293T = experiment: Nucleoside uptake assay (uptake) using 3H-Thymidine, 293T; type: cell-based; conditions: 293T cells
Experimental: Nucleoside Uptake Assay (uptake). Nuceloside uptake assays were performed with using 3H-Thymidine as described in Guo et al. (2018) Nat. Chem. 11:254-63. Specific cell lines are indicated in each assay and cultured in complete growth media. Activity is scored according to the IC50 values relative to DMSO control. “Low” indicates an IC50 greater than 600 nM, “Medium” indicates an IC50 between 300 nM and 600 nM “High” indicates an IC50 less than 300 nM. “Rel.Uptake” refers to uptake activity characterization relative to a single concentration assay. “Low” indicates a response greater than 0.6 times the activity relative to DMSO, “Medium” indicates a response between 0.6 and 0.3 times the activity relative to DMSO, “High” indicates a response less than 0.3 times the activity relative to DMSO.

[1] = tested on: nucleoside uptake (3H-Thymidine); experiment: Rel.Uptake: nucleoside uptake, single concentration assay, cell line as indicated in each table; type: cell-based; conditions: response relative to DMSO
Outline: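 3H-thymidine uptake measured in the indicated cell lines (e.g. 293T) grown in complete media. IC50 scored relative to DMSO control as Low >600 nM, Medium 300-600 nM, High <300 nM; Rel.Uptake single-concentration response vs DMSO scored Low >0.6, Medium 0.3-0.6, High <0.3.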

Row | SMILES | IC50 (293T; Table 14) [nM] | Rel. Uptake, 293T ([1]; 293T, nucleoside uptake) | Uptake, 293T (293T; IC50 class relative to DMSO control) | Rel. Uptake, 293T ([1]; 293T cells) | Uptake, 293T (293T; Table 15)
1 | COc1ccc(CC[C@H]2OC(=O)[C@@H]3CCCCN3C(=O)C(=O)C(C)(C)COC(=O)C=CCCN(C)C(=O)[C@H](CC(C)C)N(C)C(=O)[C@H]3CCCN3C(=O)[C@H](Cc3cccc(NC(C)=O)c3)NC(=O)[C@H](c3ccccc3)NC(=O)CCC(=O)Nc3cccc2c3)cc1OC [Compound 1588] | < 300 | High (“High” indicates a response less than 0.3 times the activity relative to DMSO) | – | – | –
2 | COc1ccc(CC[C@H]2OC(=O)[C@@H]3CCCCN3C(=O)C(=O)C(C)(C)COC(=O)C=CCCN(C)C(=O)[C@H](CC(C)C)N(C)C(=O)[C@H]3CCCN3C(=O)[C@H]3C[C@@H](NC(=O)OC(C)(C)C)CN3C(=O)C(c3ccccc3)NC(=O)CCC(=O)Nc3cccc2c3)cc1OC (stereo partly drawn) [Compound 1087] | – | – | low | low | –
3 | COc1ccc(CC[C@H]2OC(=O)[C@@H]3CCCCN3C(=O)C(=O)C(C)(C)COC(=O)C=CCCN(C)C(=O)[C@H](CC(C)C)N(C)C(=O)[C@H]3CCCN3C(=O)[C@H](Cc3ccc(C(=O)NCCO)cc3)NC(=O)[C@H](c3ccccc3)NC(=O)CCC(=O)Nc3cccc2c3)cc1OC [Compound 1558] | – | high | – | – | high

Reference: patent publication US11066416B2, “Rapafucin derivative compounds and methods of use thereof” (The Johns Hopkins University, priority 2016, dated 2021)
